Measured values published in paper PMC7822874, “Chemoprotective antimalarials identified through quantitative high-throughput screening of Plasmodium blood and liver stage parasites” (Scientific Reports, 2021).
Several values for one entry are separate records, joined by “and”; a condition that tells them apart may be missing. Identical values can stand only once. Like-named read-outs stand apart in the source and are kept apart here.

Assays:
[1] = test system: T1, Plasmodium falciparum Dd2-attB-ScDHODH (transgenic line expressing yeast DHODH), asexual blood stages; assay: organism not typed; design: replicate k of 3 (each line is one of three independent assays; the three lines of one compound and parasite line follow each other); settings: 72 h, n = 1; for AC50: read-out: Individual replicates / Log AC50 (converted)
T1 construct: Dd2-attB-ScDHODH, the transgenic line that expresses yeast DHODH
Procedure, shortened: (§1)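 Only some compounds were profiled here. Each was assayed three independent times against the Dd2-attB parent and its yeast-DHODH-overexpressing derivative.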

[2] = test system: T2, Plasmodium falciparum Dd2-attB (parental line), asexual blood stages; assay: microbe, parasite or virus in culture; design: replicate k of 3 (each line is one of three independent assays; the three lines of one compound and parasite line follow each other); settings: n = 1; for Individual replicates / Log AC50 (M): 72 h; for AC50: Plasmodium falciparum, DD2, 72 h, read-out: Individual replicates / Log AC50 (converted)
T2 construct: Dd2-attB, the isogenic parental line
Procedure, shortened: as §1

[3] = test system: T2, Plasmodium falciparum Dd2-attB (parental line), asexual blood stages; assay: microbe, parasite or virus in culture; design: species or system P. falciparum Dd2-attB in human erythrocytes; SYBR Green-I proliferation assay, Dd2-attB parental line, asexual blood stages; settings: 72 h; for AC50: Plasmodium falciparum, DD2, Erythrocyte; for Calculated / Average Log AC50 (M): mean of replicates, inhibitor
[4] = read-out: Calculated / Average Log AC50 (M), mean of replicates, 72 h (converted)

SMILES	AC50 [1] [µM]	Individual replicates / Log AC50 (M) [2]	AC50 [2] [µM]	AC50 [3, 4] [M]	Individual replicates / Log AC50 (M) [1]	Calculated / Average Log AC50 (M) [3] [M]	AC50 ([3]; read-out: Calculated / Average Log AC50 (M) (converted))
NC1CCN(c2cnc3c(O)ccc(C(=O)O)c3c2)CC1 [NCGC00241035-01]	17.8	-4.7986 Log AC50 (M) and -4.9986 Log AC50 (M)	17.8	1.42e-05	–	–	–
CCOC(=O)c1ccc(O)c2ncc(N3CCNCC3)cc12 [NCGC00241046-01]	5.03	-5.2986 Log AC50 (M) and -5.0986 Log AC50 (M)	5.03	5.86e-06	-5.3486 Log AC50 (M)	–	–
CCOC(=O)c1ccc(O)c2ncc(N3CCC(C(=N)N)CC3)cc12 [NCGC00241051-01]	–	-5.1486 Log AC50 (M)	12.6	1.08e-05	-4.7486 Log AC50 (M) and -4.8986 Log AC50 (M)	–	–
CCOC(=O)c1ccc(O)c2ncc(NCC3CCCN(CCc4ccccc4)C3)cc12 (stereo not shown) [NCGC00241755-01]	6.33	-5.1486 Log AC50 (M) and -4.8986 Log AC50 (M)	6.33	8.28e-06	-5.0986 Log AC50 (M)	–	–
O=C(O)c1ccc(O)c2ncc(NCC3CCCN(CCc4ccccc4)C3)cc12 (stereo not shown) [NCGC00241759-01]	8.94	-5.0486 Log AC50 (M)	7.1	1.04e-05	-4.8486 Log AC50 (M)	–	–
CN1CCN(C(=O)c2ccc(-c3cc(O)c4ncccc4c3)cc2)CC1 [NCGC00244524-01]	15.9	-5.0486 Log AC50 (M) and -5.0986 Log AC50 (M)	15.9	1.04e-05	-5.0486 Log AC50 (M)	–	–
CN(C)CCCNC(=O)c1cccc(-c2cc(O)c3ncccc3c2)c1 [NCGC00244527-01]	8.94	-5.0486 Log AC50 (M) and -4.8486 Log AC50 (M)	14.2	1.22e-05	-4.7986 Log AC50 (M)	–	–
O=C(NCCCN1CCCCC1)c1cccc(-c2cc(O)c3ncccc3c2)c1 [NCGC00244529-01]	8.94	-5.0486 Log AC50 (M)	14.2	1.04e-05	-4.7986 Log AC50 (M)	–	–
CN(C)CC(C)(C)CNC(=O)c1cccc(-c2cc(O)c3ncccc3c2)c1 [NCGC00244532-01]	–	-4.7986 Log AC50 (M) and -5.1486 Log AC50 (M) and -4.8486 Log AC50 (M)	–	1.17e-05	-4.7486 Log AC50 (M) and -5.0986 Log AC50 (M)	–	–
O=C(NCc1cccnc1)c1cccc(-c2cc(O)c3ncccc3c2)c1 [NCGC00244537-01]	8.94	-4.7986 Log AC50 (M)	7.97	1.31e-05	-4.8486 Log AC50 (M)	–	–
CN(C)CCCOc1ccc(-c2cc(O)c3ncccc3c2)cn1 [NCGC00247741-01]	–	-4.7986 Log AC50 (M) and -5.1486 Log AC50 (M) and -5.0986 Log AC50 (M)	–	9.65e-06	-4.7486 Log AC50 (M) and -5.0486 Log AC50 (M)	–	–
CN(C)CCCN1CCN(C(=O)c2cccc(-c3cc(O)c4ncccc4c3)c2)CC1 [NCGC00247746-01]	15.9	-4.7486 Log AC50 (M)	11.3	1.53e-05	–	–	–
CN(C)CCNC(=O)c1ccc(-c2cc(O)c3ncccc3c2)cc1 [NCGC00247749-01]	17.8	-4.9986 Log AC50 (M) and -5.0486 Log AC50 (M)	15.9	1.13e-05	–	–	–
O=C(O)c1ccc(O)c2ncc(N3CCCN(CCc4cccc5ccccc45)CC3)cc12 [NCGC00247751-02]	–	-5.1486 Log AC50 (M)	6.33	9.65e-06	-5.2486 Log AC50 (M) and -4.7486 Log AC50 (M)	–	–
O=C(c1cccc(-c2cc(O)c3ncccc3c2)c1)N1CCN(CCCN2CCOCC2)CC1 [NCGC00247764-01]	17.8	–	17.8	2e-05	–	–	–
Cc1ccccc1CN1CCN(c2cnc3c(O)ccc(C(=O)O)c3c2)CC1 [NCGC00249382-01]	15.9	–	14.2	1.65e-05	–	–	–
CC1CN(Cc2ccccc2)CCN1c1cnc2c(O)ccc(C(=O)O)c2c1 (stereo not shown) [NCGC00249384-01]	17.8	–	14.2	1.59e-05	–	–	–
O=C(NCCCCN1CCOCC1)c1cccc(-c2cc(O)c3ncccc3c2)c1 [NCGC00249385-01]	–	-5.1986 Log AC50 (M) and -4.8986 Log AC50 (M)	6.33	7.97e-06	-5.2486 Log AC50 (M) and -5.1486 Log AC50 (M) and -4.8486 Log AC50 (M)	–	–

SMILES	AC50 [1] [µM]	Individual replicates / Log AC50 (M) [2]	AC50 [2] [µM]	AC50 [3, 4] [M]	Individual replicates / Log AC50 (M) [1]	Calculated / Average Log AC50 (M) [3] [M]	AC50 ([3]; read-out: Calculated / Average Log AC50 (M) (converted))
O=C(O)CCNc1cc(N2CCc3ccccc3CC2)nc(-c2cccnc2)n1 [NCGC00351549-02]	–	-4.9986 Log AC50 (M) and -4.8486 Log AC50 (M)	14.2	–	-4.8486 Log AC50 (M) (2×) and -4.7986 Log AC50 (M)	-4.8986	–
CCNC(=O)Oc1cc(-c2cccc(C(=O)NCCCc3ccccc3)c2)cc2cccnc12 [NCGC00372508-01]	6.33	-5.1986 Log AC50 (M) and -4.7486 Log AC50 (M) and -5.0986 Log AC50 (M)	–	–	-5.0486 Log AC50 (M)	–	9.65e-06
CCCOC(c1cc2nccc(C(=O)O)c2[nH]1)c1ccccc1Cl (stereo not shown) [NCGC00381656-01]	15.9	-5.0486 Log AC50 (M) and -4.7986 Log AC50 (M)	7.97	1.04e-05	-4.9486 Log AC50 (M)	–	–
O=C(O)c1ccncc1Nc1nn(CCN2CCC(F)(F)CC2)c2ccc(F)cc12 [NCGC00384162-01]	17.8	–	15.9	1.93e-05	–	–	–
O=[S+]([O-])(c1nc2ccccc2[nH]1)N(CCc1ccccc1)CCN1CCCCC1 [NCGC00389114-01]	–	-5.5486 Log AC50 (M) (2×) and -5.0486 Log AC50 (M)	–	4.15e-06	-5.6986 Log AC50 (M) and -5.2486 Log AC50 (M)	–	–
CCOC(=O)c1c2ccc(C(=O)N3CCOCC3)cc2n2ccccc12 [NCGC00390098-01]	7.1	-5.0486 Log AC50 (M)	14.2	1.26e-05	–	–	–
O=C(O)c1c2ccc(C(=O)N3CCOCC3)cc2n2ccccc12 [NCGC00390822-01]	2.52	-5.7986 Log AC50 (M) and -5.7486 Log AC50 (M)	2.83	2e-06	-5.5986 Log AC50 (M)	–	–
COC(=O)c1ccnc2cc(C(OCCN3CCC(F)(F)CC3)c3ccccc3Cl)[nH]c12 (stereo not shown) [NCGC00408945-01]	15.9	–	10	1.42e-05	–	–	–
CCOC(=O)c1ccnc(-c2ncn(C)c2-c2ccc(OC)cc2)c1 [NCGC00409816-01]	7.97	-5.1986 Log AC50 (M) and -4.8486 Log AC50 (M) and -5.0986 Log AC50 (M)	–	8.94e-06	-4.9486 Log AC50 (M) and -4.7986 Log AC50 (M)	–	–
COc1ccc(-c2c(-c3cc([N+](=O)[O-])ccn3)ncn2C)cc1 [NCGC00414991-01]	8.94	–	14.2	1.22e-05	-4.7986 Log AC50 (M)	–	–
C=C[S+](=O)([O-])N1CCCN(c2cc(N(CCC(=O)O)[S+](=O)([O-])C=C)nc(-c3ccccn3)n2)CC1 [NCGC00420875-01]	15.9	–	11.3	1.53e-05	–	–	–
CCC(C)C1=N[S+](=O)([O-])c2cc(NC(=O)C3CC3)ccc2N1c1ccccc1 (stereo not shown) [NCGC00474156-01]	8.94	-5.9486 Log AC50 (M) and -5.5986 Log AC50 (M) (2×)	–	1.93e-06	-5.1986 Log AC50 (M) and -5.1486 Log AC50 (M)	–	–
CC(NCCN1CCCCC1)c1cnn(-c2cc(CO)ccn2)c1-c1cccc(-c2ccccc2)c1 (stereo not shown) [NCGC00479100-01]	8.94	–	8.94	3.99e-06	–	–	–
Oc1ncnc2sc(C(OCCN3CCCCC3)c3ccccc3Cl)cc12 (stereo not shown) [NCGC00481361-01]	15.9	-5.0986 Log AC50 (M)	8.94	1e-05	-5.0486 Log AC50 (M)	–	–
COC(=O)c1ccnc2cc(C(OCCN3CCCCC3)c3ccccc3Cl)sc12 (stereo not shown) [NCGC00481502-01]	17.8	-5.0486 Log AC50 (M) and -4.8486 Log AC50 (M)	15.9	1.26e-05	-4.7486 Log AC50 (M)	–	–
O=C(O)c1ccnc(-n2ncc(C(OCCN3CCCCC3)c3ccccc3Cl)c2-c2cccc(-c3ccccc3)c2)c1 (stereo not shown) [NCGC00481639-01]	–	-5.3986 Log AC50 (M) and -5.5986 Log AC50 (M)	–	–	-4.9986 Log AC50 (M) and -5.1486 Log AC50 (M)	-5.482	–
O=C(O)c1ccnc(-n2ncc(C(OCCN3CCCCC3)c3ccccc3Cl)c2-c2cccc(-c3ccccc3)c2)c1 (stereo not shown) [NCGC00481640-01]	–	-5.0486 Log AC50 (M) and -4.8986 Log AC50 (M) (2×)	–	–	-4.7986 Log AC50 (M) and -4.8486 Log AC50 (M)	-4.9486	–
